Data as given in US20130109682A1, “CYCLIC ETHER COMPOUNDS USEFUL AS KINASE INHIBITORS” (NOVARTIS AG, priority 2010, published 2013).

Tests used:
Type in all cases: biochemical
PKCα = PKCα (Homo sapiens, UniProt P17252); test: PKCα kinase Caliper assay; settings: PKCα Caliper assay; read-out: PKC IC50
Summary of the method: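 Eight-point compound dilutions incubated with PKCα and peptide/ATP for 60 min at 30° C in 50 mM HEPES pH 7.5, 1 mM DTT, 0.02% Tween20, 0.02% BSA, 0.6% DMSO. Activity from phospho-peptide formed, separated by microfluidic mobility shift.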

GSK3β = GSK3β (Homo sapiens, UniProt P49841); test: GSK3β ATP depletion assay; settings: ATP depletion assay; read-out: GSK3b IC50
Summary of the method: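 Human GSK3β (5 nM) preincubated 15 min with 10 μM biotinylated phospho-CREB peptide in pH 7.5 Tris buffer (15 mM MgCl2, 1 mM DTT, 0.1% BSA, 2.5% DMSO). Reaction started with 2 μM ATP and run to about 50% ATP depletion. Remaining ATP measured by KinaseGlo luminescence.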

FLT3D835Y kinase = molecular target: T1, FLT3D835Y kinase (Homo sapiens, UniProt P36888, D835Y); test: FLT3D835Y kinase inhibition assay (LanthaScreen TR-FRET); settings: read-out: FLT3 IC50
T1 sequence (P36888 27-993 D835Y): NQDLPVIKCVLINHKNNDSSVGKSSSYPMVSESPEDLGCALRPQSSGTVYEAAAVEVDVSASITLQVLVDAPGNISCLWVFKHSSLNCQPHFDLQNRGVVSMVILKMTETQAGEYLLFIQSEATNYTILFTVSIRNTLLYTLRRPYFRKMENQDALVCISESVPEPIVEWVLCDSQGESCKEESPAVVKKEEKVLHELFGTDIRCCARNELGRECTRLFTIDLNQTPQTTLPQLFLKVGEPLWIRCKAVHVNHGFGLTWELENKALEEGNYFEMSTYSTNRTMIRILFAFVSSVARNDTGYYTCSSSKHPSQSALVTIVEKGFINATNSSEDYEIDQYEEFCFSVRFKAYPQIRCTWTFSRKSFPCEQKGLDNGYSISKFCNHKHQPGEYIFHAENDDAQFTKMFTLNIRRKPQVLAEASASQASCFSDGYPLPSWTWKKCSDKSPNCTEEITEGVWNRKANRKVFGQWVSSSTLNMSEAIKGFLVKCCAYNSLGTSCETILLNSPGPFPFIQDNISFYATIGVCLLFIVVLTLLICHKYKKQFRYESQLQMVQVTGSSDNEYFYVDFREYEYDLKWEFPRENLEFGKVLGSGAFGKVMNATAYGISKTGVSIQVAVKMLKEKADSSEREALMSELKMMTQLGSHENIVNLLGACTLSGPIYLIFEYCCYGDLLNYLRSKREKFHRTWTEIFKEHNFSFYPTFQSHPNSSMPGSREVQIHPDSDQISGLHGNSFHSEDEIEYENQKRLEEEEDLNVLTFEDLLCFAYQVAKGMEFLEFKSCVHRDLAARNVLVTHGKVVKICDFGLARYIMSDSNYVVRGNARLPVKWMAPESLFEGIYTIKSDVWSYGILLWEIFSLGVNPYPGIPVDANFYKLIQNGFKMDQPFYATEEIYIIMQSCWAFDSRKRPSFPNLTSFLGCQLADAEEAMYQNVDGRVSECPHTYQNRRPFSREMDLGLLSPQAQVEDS
Summary of the method: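 TR-FRET with 5.7 nM FLT3D835Y, 50 nM polyEAY substrate, 2 μM ATP (f.c.), 3 mM Mg and 3 mM Mn in 50 mM TRIS-HCl pH 7.4 with DTT, Tween 20 and Na3VO4. Reaction 1 h, stopped with EDTA, then Tb-labeled P-20 antibody for 45 min; single end-point reading.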

Sequence of GSK3β (P49841 whole entry, species assumed): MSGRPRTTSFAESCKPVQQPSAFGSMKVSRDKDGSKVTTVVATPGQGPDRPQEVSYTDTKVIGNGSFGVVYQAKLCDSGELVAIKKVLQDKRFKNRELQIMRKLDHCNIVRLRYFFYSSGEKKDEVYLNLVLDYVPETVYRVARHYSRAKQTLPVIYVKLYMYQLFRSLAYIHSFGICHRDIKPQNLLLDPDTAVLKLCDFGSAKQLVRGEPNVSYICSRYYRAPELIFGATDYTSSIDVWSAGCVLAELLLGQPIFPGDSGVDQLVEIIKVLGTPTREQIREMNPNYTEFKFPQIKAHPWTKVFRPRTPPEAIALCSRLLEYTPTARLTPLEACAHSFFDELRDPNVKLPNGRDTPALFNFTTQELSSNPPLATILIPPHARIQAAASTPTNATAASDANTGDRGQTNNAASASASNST

Row | Compound | IC50 (PKCα) [nM] | IC50 (GSK3β) [nM] | IC50 (FLT3D835Y kinase) [nM]
1 | C[C@@]1(O)[C@@H](N)C[C@@H](c2ccncc2NC(=O)c2nc(-c3ccccc3)cnc2N)O[C@H]1C1CC1 [Example 347, 3-amino-N-(4-((2S,4S,5R,6S)-4-amino-6-cyclopropyl-5-hydroxy-5-methyltetrahydro-2H-pyran-2-yl)pyridin-3-yl)-6-phenylpyrazine-2-carboxamide] | 1000 | 570 | 770
2 | Nc1ncc(-c2ccccc2)nc1C(=O)Nc1cnccc1[C@@H]1C[C@H](N)[C@@H](O)[C@H](C2CC2)O1 [Example 349, 3-amino-N-(4-((2S,4S,5R,6S)-4-amino-6-cyclopropyl-5-hydroxytetrahydro-2H-pyran-2-yl)pyridin-3-yl)-6-phenylpyrazine-2-carboxamide] | 140 | 100 | 250
3 | CC(C)(C)[C@H]1O[C@@H](c2ccncc2NC(=O)c2nc(-c3ccccc3)cnc2N)C[C@@H](N)[C@@H]1O [Example 354, 3-amino-N-(4-((2R,4R,5S,6R)-4-amino-6-tert-butyl-5-hydroxytetrahydro-2H-pyran-2-yl)pyridin-3-yl)-6-phenylpyrazine-2-carboxamide] | 22 | 3.2 | 3.1
4 | CC(C)[C@H]1O[C@@H](c2ccncc2NC(=O)c2nc(-c3ccccc3)cnc2N)C[C@@H](N)[C@@H]1O [Example 356, 3-amino-N-(4-((2R,4R,5S,6R)-4-amino-5-hydroxy-6-isopropyltetrahydro-2H-pyran-2-yl)pyridin-3-yl)-6-phenylpyrazine-2-carboxamide] | 75 | 8.6 | 5.8

The remaining compounds from weak to strong by IC50 (PKCα), led by results:

Row | IC50 (PKCα) [nM] | IC50 (GSK3β) [nM] | IC50 (FLT3D835Y kinase) [nM] | Compound
5 | 840 | 170 | 2600 | CC(C)(C)[C@@H]1O[C@H](c2ccncc2NC(=O)c2nc(-c3ccccc3)cnc2N)C[C@H](N)[C@H]1O [Example 355, 3-amino-N-(4-((2S,4S,5R,6S)-4-amino-6-tert-butyl-5-hydroxytetrahydro-2H-pyran-2-yl)pyridin-3-yl)-6-phenylpyrazine-2-carboxamide]
6 | 220 | 120 | 17 | CC[C@H]1O[C@@H](c2ccncc2NC(=O)c2nc(-c3ccccc3)cnc2N)C[C@@H](N)[C@]1(C)O [Example 348, 3-amino-N-(4-((2R,4R,5S,6R)-4-amino-6-ethyl-5-hydroxy-5-methyltetrahydro-2H-pyran-2-yl)pyridin-3-yl)-6-phenylpyrazine-2-carboxamide]
7 | 84 | 25 | 95 | C[C@]1(O)[C@H](N)C[C@H](c2ccncc2NC(=O)c2nc(-c3ccccc3)cnc2N)OC12CC2 [Example 353, 3-amino-N-(4-((5R,7R,8S)-7-amino-8-hydroxy-8-methyl-4-oxaspiro[2.5]octan-5-yl)pyridin-3-yl)-6-phenylpyrazine-2-carboxamide]
8 | 55 | 5.3 | 2.5 | C[C@@]1(O)[C@H](N)C[C@@H](c2ccncc2NC(=O)c2nc(-c3ccccc3)cnc2N)OC12CC2 [Example 352, 3-amino-N-(4-((5S,7R,8R)-7-amino-8-hydroxy-8-methyl-4-oxaspiro[2.5]octan-5-yl)pyridin-3-yl)-6-phenylpyrazine-2-carboxamide]
9 | 21 | 7.8 | 44 | C[C@@]1(O)[C@@H](N)C[C@@H](c2ccncc2NC(=O)c2nc(-c3ccccc3)cnc2N)OC12CC2 [Example 350, 3-amino-N-(4-((5S,7S,8R)-7-amino-8-hydroxy-8-methyl-4-oxaspiro[2.5]octan-5-yl)pyridin-3-yl)-6-phenylpyrazine-2-carboxamide]
